In the NIST ThermoML archive (doi:10.1021/je500672d):
Numbers after ± are expanded uncertainties.

Settings: 298.15 K; 101.33 kPa; Liquid; Vibrating tube method

| mass density | Structure (SMILES) |
| --- | --- |
| 786.4 ± 0.4 kg/m3 | CO [methanol] |
| 927.7 ± 0.5 kg/m3 | COC(C)=O [methyl ethanoate] |

| Structure (SMILES) | mass density |
| --- | --- |
| COP(=O)([O-])OC.Cn1cc[n+](C)c1 [1,3-dimethylimidazolium dimethylphosphate] | 1257.8 ± 1.4 kg/m3 |
